What all share (experiment): Carbapenem potentiation against clinical isolate
The subject of one experiment is EA1019 (SHV-5, VIM-1). The format is cell-based, Enterobacter aerogenes. The following applies: Klebsiella aerogenes; strain EA1019; read-out: Doripenem MIC Alone. An excerpt: (§1) The results are present in Table 6.
(§2) The results are present in Table 7.

The next experiment deals with KP1054 (VIM-1, SHV-11). The class given is cell-based. The following applies: Klebsiella pneumoniae; strain KP1054; read-out: Doripenem MIC Alone.
Excerpt: as §1, §2

The test system of experiment [1] is KP1074 (KPC-3, SHV-11, TEM). The format is cell-based. The following applies: Klebsiella pneumoniae; strain KP1074; read-out: Doripenem MIC Alone.
Excerpt: as §1, §2

The test system of the next experiment is KP1014 (VIM-1). The format is cell-based. The following applies: Klebsiella pneumoniae; strain KP1014; read-out: Doripenem MIC Alone.
Excerpt: as §1, §2

The next experiment relates to AB1144 (NDM-1). The format is cell-based. The following applies: Acinetobacter baumannii, strain AB1144; read-out: Doripenem MIC Alone.
Excerpt: as §1, §2

Experiment [2] deals with KP1064 (KPC-2, SHV-11, TEM-1). The format is cell-based. The following applies: Klebsiella pneumoniae; strain KP1064; read-out: Doripenem MIC Alone.
Excerpt: as §1, §2

For experiment [3], the system named is KP1081 (NDM-1, TEM-1, SHV-11, CMY-6, CTX-M-15). The format is cell-based. The following applies: Klebsiella pneumoniae; strain KP1081; read-out: Doripenem MIC Alone.
Excerpt: as §1, §2

The subject of experiment [4] is KP1086 (TEM, SHV, CTX-M-15, OXA-48). The class given is cell-based. The following applies: Klebsiella pneumoniae; strain KP1086; read-out: Doripenem MIC Alone.
Excerpt: as §1, §2

In experiment [5] the test system is KP1087 (KPC-2, CTX-M-15, SHV-11, TEM-1). The format is cell-based. The following applies: Klebsiella pneumoniae; strain KP1087; read-out: Doripenem MIC Alone.
Excerpt: as §1, §2

In experiment [6] the test system is EC1064 (NDM-1, CMY-6, CTX-M-15). The format is cell-based. The following applies: Escherichia coli; strain EC1064; read-out: Doripenem MIC Alone.
Excerpt: as §1, §2

Experiment [7] relates to KP1084 (KPC-3, SHV-11, TEM-1). The class given is cell-based. The following applies: Klebsiella pneumoniae; strain KP1084; read-out: Doripenem MIC Alone.
Excerpt: as §1, §2

Experiment [8] deals with KP1004 (KPC-2, TEM-1, SHV-11). The format is cell-based. The following applies: Klebsiella pneumoniae, strain KP1004; read-out: Doripenem MIC Alone.
Excerpt: as §1, §2

The MIC is the smallest concentration in the dilution series that meets the test's criterion for growth inhibition. Regarding `C[C@@H](O)[C@H]1C(=O)N2C(C(=O)O)=C(S[C@@H]3CN[C@H](CNS(N)(=O)=O)C3)[C@H](C)[C@H]12` [Doripenem], the MIC is over 10 µg/mL with EA1019 (SHV-5, VIM-1); over 10 µg/mL in the experiment on KP1054 (VIM-1, SHV-11); over 10 µg/mL in experiment [1]; over 10 µg/mL in the experiment on KP1014 (VIM-1); over 10 µg/mL in the experiment on AB1144 (NDM-1); over 10 µg/mL in [2]. Moreover, the MIC in experiment [3] was over 10 µg/mL; in experiment [4] it was over 10 µg/mL; in [5], over 10 µg/mL; in experiment [6], over 10 µg/mL; in [7], over 10 µg/mL; in [8], 1 to 10 µg/mL.

These data come from patent US9241947B2, “Boronic acid derivatives and therapeutic uses thereof” (priority 2013, dated 2016).
